Data set [1] deals with HT29 colon carcinoma cells. The conditions noted are these: cited from earlier work.
The subject of data set [2] is HCT116 colon carcinoma cells. The conditions noted are these: cited from earlier work.
The next data set concerns HeLa cells. Further details: method as in PMID 22225466. The conditions noted are these: cited from earlier work.
In data set [3] the test system is A549 lung carcinoma cells. In words: In vitro cytotoxicity testing (MTT assay), A549. The following applies: 24 h drug exposure, no recovery, read-out: IC50±SD, A549. It is filed as cell-based, human. As to the method:
(§1) A2780 ovarian carcinoma, A2780R cisplatin-resistant ovarian carcinoma, HOS osteosarcoma, G361 malignant melanoma, MCF7 breast carcinoma, A549 lung carcinoma, HeLa cervix carcinoma, 22Rv1 prostate carcinoma and Caco-2 colorectal carcinoma human cancer cell lines were purchased from the European Collection of Cell Cultures (ECACC), while the human non-cancerous hepatocytes (Hep) were supplied by Biopredic Intl. The cell lines were cultured, according to the suppliers`instructions, in RPMI-1640 medium supplemented with 10% of fetal calf serum, 1% of 2 mM glutamine, and 1% penicillin/streptomycin. All cell lines were grown as adherent monolayers at 37°C and 5% CO2 in a humidified atmosphere.
(§2) The cells were seeded to 96-well culture plates, pre-incubated in drug-free media at 37°C for 24 h and treated typically with the 0.01–50.0 μM solutions, prepared from the stock solutions by dilution with medium, for 24 h at 37°C. […] In parallel with compounds 1–8 and the reference drugs, the cells were also treated with vehicle (0.1% DMF in medium; negative control) and Triton X-100 (1%; positive control) to assess the minimal and maximal cell damage, respectively. The MTT assay was used to determine the cell viability; MTT = 3-(4,5-dimethylthiazol-2-yl)-2,5-diphenyltetrazolium bromide. A concentration of the formed dye was evaluated spectrophotometrically at 540 nm (TECAN, Schoeller Instruments LLC).
(§3) The data were expressed as the percentage of viability, where 100% and 0% represents the treatments with negative and positive controls, respectively. The data from the cancer cells were acquired from three independent experiments (conducted in triplicate) using cells from different passages. The resulting IC50 values (μM) were calculated from viability curves and the results are presented as arithmetic mean±SD.

Data set [4] concerns A2780R cisplatin-resistant ovarian carcinoma cells. In words: In vitro cytotoxicity testing (MTT assay), A2780R. Type of data set: cell-based, human. As to the method: (§4) All cell lines were grown as adherent monolayers at 37°C and 5% CO2 in a humidified atmosphere.
(§5) The MTT assay was used to determine the cell viability; MTT = 3-(4,5-dimethylthiazol-2-yl)-2,5-diphenyltetrazolium bromide. A concentration of the formed dye was evaluated spectrophotometrically at 540 nm (TECAN, Schoeller Instruments LLC).
as §3

Data set [5] deals with G361 malignant melanoma cells. In words: In vitro cytotoxicity testing (MTT assay), G361. Type of data set: cell-based, human. The conditions noted are these: 24 h drug exposure, no recovery, read-out: IC50±SD, G361. The procedure:
as §1, §2, §3

The subject of the next data set is A2780 cells. In words: Cellular accumulation of platinum (ICP-MS). Type of data set: cell-based, human. The conditions noted are these: 24 h treatment at IC50 concentration. The procedure: The A2780 cells were seeded in 6-well culture plates (1×10^6 cells per well) and incubated overnight (37°C and 5% CO2 in a humidified incubator). […] The cells were washed with PBS (2 × 2 mL) after 24 h treatment, harvested by trypsin treatment, collected and centrifuged in PBS. The supernatants were discarded after centrifugation and pellets were digested in 500 μL of nitric acid (3 min at 150°C) using a microwave system Monowave300 (Anton Paar). Solutions were diluted with 4.5 mL of water and the platinum content was determined by ICP-MS. The obtained values were corrected for adsorption effects. The experiments were conducted in triplicate and the results are presented as arithmetic mean±SD.

Data set [6] concerns 22Rv1 prostate carcinoma cells. Description: In vitro cytotoxicity testing (MTT assay), 22Rv1. It is filed as cell-based, human. The following applies: 24 h drug exposure, no recovery, read-out: IC50±SD, 22Rv1. The procedure: as §1, §2, §3
Data set [7] deals with Caco-2 colorectal carcinoma cells. Description: In vitro cytotoxicity testing (MTT assay), Caco-2. It is filed as cell-based, human. The conditions noted are these: 24 h drug exposure, no recovery, MTT; read-out: IC50±SD, Caco-2. As to the method:
as §4, §5, §3

The nature of data set [8]: Hydrophobicity studies (logP determination), octanol/water, ICP-MS. Type of data set: physicochemical. The conditions noted are these: octanol/water (0.2 M KI). The procedure: Complexes 4 and 6 (1 mmol) were ultrasonicated for 15 min in 10 mL of OSW, centrifuged and supernatants were collected. Aliquots (5 mL) of the obtained OSW solutions of complexes 4 and 6 were added to WSO (5 mL) and shaken for 2 h at ambient temperature. After that, the mixtures were centrifuged and aqueous layer was separated carefully. The platinum concentration was determined from OSW aliquots taken before ([Pt]OSWb) and after ([Pt]OSWa) partition by ICP-MS (ICP-MS spectrometer 7700x, Agilent) with the obtained values corrected for the adsorption effects. logP = log([Pt]WSO/[Pt]OSWa) equation was used for the partition coefficients calculation; [Pt]WSO = [Pt]OSWb−[Pt]OSWa. The experiments were conducted in triplicate.

Data set [9] has as its system A2780 ovarian carcinoma cells. In words: In vitro cytotoxicity testing (MTT assay), A2780. The following applies: 24 h drug exposure, no recovery, MTT; read-out: IC50±SD, A2780. Type of data set: cell-based, human. The procedure: as §4, §5, §3
The subject of data set [10] is human non-cancerous hepatocytes (Hep). In words: In vitro cytotoxicity testing (MTT assay), hepatocytes. Type of data set: cell-based. The following applies: 24 h drug exposure, no recovery. The procedure: as §1, §2, §3
For another data set, the system named is HOS osteosarcoma cells. In words: In vitro cytotoxicity testing (MTT assay), HOS. Type of data set: cell-based, human. The conditions noted are these: 24 h drug exposure, no recovery, MTT; read-out: IC50±SD, HOS. As to the method:
as §1, §2, §3

The test system of data set [11] is MCF7 breast carcinoma cells. In words: In vitro cytotoxicity testing (MTT assay), MCF7. Type of data set: cell-based, human. The conditions noted are these: 24 h drug exposure, no recovery, read-out: IC50±SD, MCF7. The procedure:
as §1, §2, §3

Data set [12] relates to HeLa cervix carcinoma cells. In words: In vitro cytotoxicity testing (MTT assay), HeLa. It is filed as cell-based, human. The following applies: 24 h drug exposure, no recovery, read-out: IC50±SD, HeLa. The procedure:
as §1, §2, §3

The test system of data set [13] is A2780, T-47D human breast carcinoma and WiDr human colon carcinoma cell lines. Further details: method as in PMID 24900222. The following applies: cited from earlier work.

As to `O=C1[O][Pt]2([NH][C@@H]3CCCC[C@H]3[NH]2)[O]C1=O` [oxaliplatin], the IC50 in data set [1] was 0.7 µM; in data set [2] it was 0.3 µM.
On to `C[NH+](C)[Pt-2]([I])([I])[NH+](C)C` [trans-[PtI2(L1)2]], for which, in the data set on HeLa cells, the “factor by which activity of cisplatin is exceeded” value was about 6.
As to `Ic1c[nH]c2c1ccc[n+]2[Pt-2]([I])([I])[n+]1cccc2c(I)c[nH]c21` [Complex 4, cis-[PtI2(3Iaza)2]], the IC50 in data set [3] stood at 9.8 ± 1.3 µM; in data set [4] (24 h drug exposure, no recovery, MTT, read-out: IC50±SD, A2780R), 2.6 ± 0.8 µM; in [5] it was 1.6 ± 0.7 µM; in [6] it was 4.5 ± 1.6 µM; in data set [7], 3.3 ± 0.1 µM; in data set [9] it was 2.3 ± 1.1 µM. Further, the IC50 in data set [10] turned out to be 11.8 µM; in the data set on HOS osteosarcoma cells, 2.8 ± 1 µM; in data set [11], 1.8 ± 0.3 µM; in data set [12], 6.2 ± 0.7 µM. Further, the “resistance factor (RF), IC50(A2780R)/IC50(A2780)” value in data set [4] (24 h IC50 values) came to 1.13. This compound also yielded a cellular accumulation in the data set with A2780 cells of 354±63 pmol Pt/10^6 A2780 cells. This compound displayed a logP in data set [8] of 0.41.
With `CC(C)N.CC(C)N.[I][Pt][I]` [cis-[PtI2(ipam)2]], the “times more potent than cisplatin” value in data set [13] is reported as at most 11 times.

These data come from article PMC5131915, “Platinum(II) Iodido Complexes of 7-Azaindoles with Significant Antiproliferative Effects: An Old Story Revisited with Unexpected Outcomes” (PLoS ONE, 2016).
